Measurements reported in ChEMBL document CHEMBL4680112, “Synthesis and Structure-Activity Relationships of Inhibitors That Target the C-Terminal MEEVD on Heat Shock Protein 90” (ACS Med Chem Lett, 2018).
Activity calls are given as the source filed them. The calls are words filed in the database; no cut-off is given here. Non-standard residues stand in square brackets, D forms with d. Residues, ends and D or L forms follow the SMILES beside them.

biological target: T1, Heat shock protein HSP 90-beta (Homo sapiens, UniProt P08238); experiment: Inhibition of C-terminal HSP90beta (527 to 724 residues) (unknown origin) interaction with CYP40 measured after 30 mins by Alphascreen assay; conditions: not given
T1 sequence (P08238 whole entry, the tested form may be a part): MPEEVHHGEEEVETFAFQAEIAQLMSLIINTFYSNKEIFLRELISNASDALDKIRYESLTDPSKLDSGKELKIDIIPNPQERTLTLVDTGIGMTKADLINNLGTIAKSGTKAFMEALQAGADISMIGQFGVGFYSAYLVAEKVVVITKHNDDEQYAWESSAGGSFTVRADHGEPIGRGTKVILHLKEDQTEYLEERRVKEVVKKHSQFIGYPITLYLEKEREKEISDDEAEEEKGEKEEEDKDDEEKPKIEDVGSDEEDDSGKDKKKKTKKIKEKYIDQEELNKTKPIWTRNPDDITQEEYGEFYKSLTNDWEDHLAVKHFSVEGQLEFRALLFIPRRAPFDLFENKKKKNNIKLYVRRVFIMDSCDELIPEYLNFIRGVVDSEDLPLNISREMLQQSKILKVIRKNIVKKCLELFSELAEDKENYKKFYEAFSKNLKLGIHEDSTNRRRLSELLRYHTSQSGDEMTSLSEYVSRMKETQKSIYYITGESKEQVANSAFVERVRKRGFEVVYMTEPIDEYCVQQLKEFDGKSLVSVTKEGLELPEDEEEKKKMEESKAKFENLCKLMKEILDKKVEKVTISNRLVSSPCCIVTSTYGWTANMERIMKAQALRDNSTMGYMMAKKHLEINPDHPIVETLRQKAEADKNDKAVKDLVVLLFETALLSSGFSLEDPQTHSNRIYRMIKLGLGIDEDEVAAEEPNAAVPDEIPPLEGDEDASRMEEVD

IC50 [µM]	Structure (SMILES)
50	CC[C@H](C)[C@H](NC(=O)[C@H](CCCNC(=N)N)NC(=O)[C@H](C)NC(=O)[C@H](Cc1ccc(O)cc1)NC(=O)[C@H](C)NC(=O)[C@@H](N)CCCCN)C(=O)NCC(=O)N[C@@H](CC(N)=O)C(=O)N[C@@H](CO)C(=O)N[C@@H](Cc1ccc(O)cc1)C(=O)N[C@@H](Cc1ccccc1)C(=O)N[C@@H](CCCCN)C(=O)O

biological target: T1, Heat shock protein HSP 90-beta; experiment: Potency index, ratio of Kawakami-peptide IC50 to LB51 IC50 C-terminal HSP90beta (527 to 724 residues) (unknown origin) interaction with CYP40 measured after 30 mins by Alphascreen assay; conditions: not given

Ratio IC50	Structure (SMILES)
> 10	NCCCC[C@@H]1NC(=O)[C@H](Cc2ccccc2)NC(=O)[C@H](Cc2ccc(O)cc2)NC(=O)[C@H](CO)NC(=O)[C@H](CC(N)=O)NC1=O (cyclo(KNSYF))

biological target: T1, Heat shock protein HSP 90-beta; experiment: Inhibition of C-terminal HSP90beta (527 to 724 residues) (unknown origin) interaction with CYP40 at 1 to 25 uM measured after 30 mins by AlphaLISA assay; conditions: dose 1-25 µM

Structure (SMILES)	inhibition
C[C@H]1NC(=O)[C@H](CCCCN)NC(=O)[C@H](Cc2ccccc2)NC(=O)[C@H](Cc2ccc(O)cc2)NC(=O)[C@H](CO)NC1=O	inactive
CC(C)C[C@@H]1NC(=O)[C@H](CCCCN)NC(=O)[C@H](Cc2ccccc2)NC(=O)[C@H](Cc2ccc(O)cc2)NC(=O)[C@H](CO)NC1=O (cyclo(FKLSY))	inactive
C[C@@H]1NC(=O)[C@H](CC(N)=O)NC(=O)[C@H](CCCCN)NC(=O)[C@H](Cc2ccccc2)NC(=O)[C@H](Cc2ccc(O)cc2)NC1=O (cyclo(AYFKN))	Active
NCCCC[C@@H]1NC(=O)[C@H](Cc2ccccc2)NC(=O)[C@H](Cc2ccc(O)cc2)NC(=O)[C@H](CO)NC(=O)[C@H](CC(=O)O)NC1=O (cyclo(DSYFK))	inactive

Next, values leading:

inhibition	Structure (SMILES)
inactive	NCCCC[C@@H]1NC(=O)[C@H](Cc2ccccc2)NC(=O)[C@H](Cc2ccc(O)cc2)NC(=O)[C@@H](CO)NC(=O)[C@H](CC(N)=O)NC1=O (cyclo(FKN[dS]Y))
inactive	NCCCC[C@@H]1NC(=O)[C@@H](Cc2ccccc2)NC(=O)[C@H](Cc2ccc(O)cc2)NC(=O)[C@H](CO)NC(=O)[C@H](CC(N)=O)NC1=O (cyclo(KNSY[dF]))
Active	NCCCC[C@@H]1NC(=O)[C@H](Cc2ccccc2)NC(=O)[C@H](Cc2ccc(O)cc2)NC(=O)[C@H](CO)NC(=O)[C@H](Cc2ccccc2)NC1=O (cyclo(FKFSY))
inactive	NCCCC[C@@H]1NC(=O)[C@H](Cc2ccccc2)NC(=O)[C@H](Cc2ccc(O)cc2)NC(=O)[C@H](CO)NC(=O)[C@@H](CC(N)=O)NC1=O (cyclo(FK[dN]SY))
